Assay results published in US12433866B2, “Lasofoxifene treatment of aromatase-resistant ER+ cancer” (Sermonix Pharmaceuticals, Inc., priority 2021, dated 2025).

How the values were obtained:
MCF7 LTLT primary tumors [1] = experiment: Ki67 proliferation index by immunohistochemistry on fixed mammary glands, MCF7 LTLT MIND model; format: in vivo, NSG mice; details: for Effect on Ki67 percentage / proliferation index (in words): MCF7 LTLT model, comparisons as stated; for % Ki67 % mean: MCF7 LTLT primary tumors, IHC at sacrifice after 90-93 days of treatment, manual counting, Let− cohort, and Let+ cohort where label includes letrozole; for Ki67 percentage (mean +/− standard deviation): Let+ cohort (all groups also received letrozole 10 μg/day)
Description: (§1) After cell injection, mice were separated into 2 equal groups; one group received 10 μg/day of letrozole in 15% PEG400 in PBS via subcutaneous injection, “LTLT-Let”; the other group wasn't administered letrozole (“LTLT”). Two to three weeks after cell injections, mice in each group were randomized and treated 5 days/week with lasofoxifene (10 mg/kg, in 100 μl of PBS containing 15% PEG400), palbociclib (70 mg/kg, Med Chem Express #HY-50567, in 50 mM sodium lactate buffer pH4), or vehicle. Lasofoxifene and vehicle were administered subcutaneously. Palbociclib was administered via oral gavage 5 times/week. Fulvestrant (Med Chem Express #HY-13636) (“IC”) (5 mg/mouse) was administered once per week via subcutaneous injection in 100 μl of mineral oil. Mice were also treated with combinations of lasofoxifene+palbociclib, fulvestrant+palbociclib, lasofoxifene+letrozole and palbociclib or fulvestrant+palbociclib, or letrozole.
Harvested tissues were fixed in formalin for IHC and H&E staining. Tissue histology was performed by the Human Tissue Resource Center (HRTC) at the University of Chicago. Primary Glands excised from the mice were sectioned and stained with antibodies to estrogen receptor alpha (ThermoScientific, RM-9101-S0, clone SP1), progesterone receptor (ThermoScientific, RM-9102-S0, clone SP2), glucocorticoid receptor (Cell Signaling, Cat #3660), androgen receptor (Abcam, ab133273, clone EPR1535), Ki67 (ThermoScientific, Cat #RM-9106-s, Clone: SP6) and human-specific mouse monoclonal antibody to mitochondria (Abcam, ab92824, clone 112-1).
(§2) H&E and IHC slides were scanned on a Nikon eclipse Ti2 microscope with a 10× objective for high resolution images. Ki67 score was determined using standardized manual counting.
Immunohistochemistry with anti-Ki67 antibody was performed on fixed mammary glands to determine the proliferation index for MCF7 LTLT primary tumors.

MCF7 LTLT primary tumors [2] = experiment: Mammary gland weight at sacrifice, MCF7 LTLT MIND model; format: in vivo, NSG mice; details: Let− cohort
Description: Mouse studies were performed in compliance with an approved Institutional Animal Care and Use Committee protocol. NSG (NOD.Cg-Prkdcscid Il2rgtmlWjl/SzJ) mice were purchased from The Jackson Laboratories. Prior to injection, mice were anesthetized via inhalation with 2-3% isoflurane in oxygen. Injections of single-cell suspensions of 250,000 MCF7 cells in the mammary ducts of inguinal glands 4 and 9 were performed as described (Behbod, F., et al. Breast Cancer Res. 11, R66 (2009); Sflomos, G., et al. Cancer Cell 29, 407-422 (2016); Laine, M., et al. Breast Cancer Res. 23, 54 (2021)). Tumor growth in situ was followed via imaging in a Xenogen IVIS 200 instrument in the Integrated Small Animal Imaging Research Resource at the University of Chicago. For IVIS imaging, mice were injected with 100 μl of a 0.1 M luciferin solution in PBS (Perkin Elmer XenoLight #122799).
After cell injection, mice were separated into 2 equal groups; one group received 10 μg/day of letrozole in 15% PEG400 in PBS via subcutaneous injection, “LTLT-Let”; the other group wasn't administered letrozole (“LTLT”). Two to three weeks after cell injections, mice in each group were randomized and treated 5 days/week with lasofoxifene (10 mg/kg, in 100 μl of PBS containing 15% PEG400), palbociclib (70 mg/kg, Med Chem Express #HY-50567, in 50 mM sodium lactate buffer pH4), or vehicle. […]

MCF7 LTLT primary tumors [3] = experiment: Percent tumor area vs total gland area by H&E of mammary gland sections, MCF7 LTLT MIND model; format: in vivo, NSG mice; details: Let− cohort
Description: as §1
Harvested tissues were fixed in formalin for IHC and H&E staining. Tissue histology was performed by the Human Tissue Resource Center (HRTC) at the University of Chicago. […]
as §2
H&E slides were scanned on a Nikon microscope and analyzed with the NSI element software.

MCF7 LTLT cells = experiment: Ex vivo IVIS radiance of excised liver, lung, brain and bone at sacrifice (metastasis), MCF7 LTLT MIND model; design: species or system NSG mice; details: ex vivo radiance in bones at sacrifice
Description: as §1
After 90-93 days of treatment, mice were sacrificed, and mammary gland tumors were excised and weighed. Liver, bone brain and lungs were removed and imaged ex vivo in the IVIS 200, following an in vivo injection of luciferin 8 min prior to sacrifice, to measure luciferase activity.
At sacrifice, livers, lungs, bones and brains were excised and imaged ex vivo on the IVIS. […] Data for Let^+ group were evaluated but are not shown.

[4] = system: MCF7 LTLT (AI-resistant, ER+, cells lacking ESR1 gain-of-function mutations) tumors; experiment: MIND model: luciferase-GFP MCF7 LTLT cells in mammary ducts of NSG mice, live luminescence imaging of primary tumors (total photon flux); format: in vivo; details: for Inhibition of primary tumor growth (conclusion in words): MCF7 LTLT tumors, AI-resistant, no ESR1 gain-of-function mutations
Description: Luciferase-GFP tagged LTLT cells were injected into the mammary ducts of NSG mice (MIND model) and tumor progression was monitored by live luminescence imaging of primary tumors, as well as ex vivo imaging and histochemical analysis of metastatic sites at study endpoint. Primary tumor area was also measured at study endpoint.
Cells were grown in RPMI containing 10% FBS and 1 μM letrozole.
Mouse studies were performed in compliance with an approved Institutional Animal Care and Use Committee protocol. NSG (NOD.Cg-Prkdcscid Il2rgtmlWjl/SzJ) mice were purchased from The Jackson Laboratories. Prior to injection, mice were anesthetized via inhalation with 2-3% isoflurane in oxygen. […] Tumor growth in situ was followed via imaging in a Xenogen IVIS 200 instrument in the Integrated Small Animal Imaging Research Resource at the University of Chicago.
Lasofoxifene and vehicle were administered subcutaneously. Palbociclib was administered via oral gavage 5 times/week. […] Mice were also treated with combinations of lasofoxifene+palbociclib, fulvestrant+palbociclib, lasofoxifene+letrozole and palbociclib or fulvestrant+palbociclib, or letrozole.
MCF7 LTLT cells labeled with GFP luciferase were injected into the mammary ducts of NSG mice to establish tumors that represent an AI resistant, non-ESR1-mutated, breast cancer model. Treatment with lasofoxifene, palbociclib and combinations of lasofoxifene and palbociclib were carried out in the presence (Let^+) or absence (Let^−) of letrozole, to account for the potential loss of letrozole resistance (“reversion”) in the Let^− cohort. Mice were imaged every other week in a Xenogen IVIS scanner to estimate tumor growth. At the end of the study, mammary glands were removed and weighed.

[5] = post-menopausal women with no history of breast cancer, wild estrogen receptors; cited from earlier work
[6] = system: MCF-7 xenograft with activating ERα mutations; details: gain-of-function activating mutations in the ERα receptor; previous studies; cited from earlier work

Row | SMILES | Effect on Ki67 percentage / proliferation index (in words) (MCF7 LTLT primary tumors [1]; Let+ cohort) | % Ki67 % mean (MCF7 LTLT primary tumors [1]) [%] | Mammary gland weight at end of study (in words) (MCF7 LTLT primary tumors [2]) | % tumor area of total gland area, H&E (in words) (MCF7 LTLT primary tumors [3]) | Bone readings with a signal above threshold (MCF7 LTLT cells) [readings] | Tumor photon flux in the presence of letrozole (in words) ([4]; Let+ cohort, data not shown) | Total photon flux over time (in words) ([4]; imaged every other week, Let− cohorts shown) | Reduction of the Ki67 percentage (MCF7 LTLT primary tumors [1]; Let+ cohort, versus letrozole control) [%] | Bone metastasis / bone radiance versus vehicle (in words) (MCF7 LTLT cells) | Inhibition of primary tumor growth (conclusion in words) [4] | Inhibition of primary tumor growth (conclusion in words) ([4]; listed as Lasofoxifene) | Photon flux at day 104 (in words) ([4]; day 104, regardless of the presence of letrozole) | Risk of ER+ breast cancer (in words) [5] | Inhibition of tumor growth and metastasis compared with fulvestrant (in words) [6] | Ki67 percentage (mean +/− standard deviation) (MCF7 LTLT primary tumors [1])
1 | C[C@]12CC[C@@H]3c4ccc(O)cc4C[C@@H](CCCCCCCCC[S+]([O-])CCCC(F)(F)C(F)(F)F)[C@H]3[C@@H]1CC[C@@H]2O (stereo partly shown) [fulvestrant (ICI), fulvestrant] | do not reduce Ki67% levels | 56.8 | inhibits mammary gland weight | did not reach statistical significance | 2 | appeared to increase tumor photon flux | higher than all other treatments |  |  |  |  |  |  |  | 
2 | Oc1ccc2c(c1)CC[C@H](c1ccccc1)[C@@H]2c1ccc(OCCN2CCCC2)cc1 [lasofoxifene] |  | 46.0 | inhibits increases in primary tumor weight | significantly lower |  |  |  | 6.5 | appears to inhibit metastasis to the bone | significantly inhibits primary tumor growth | significantly more effective than fulvestrant | significantly lower than vehicle and fulvestrant (ICI) treatment | reduce the risk of ER^+ breast cancer | more effective than fulvestrant at inhibiting tumor growth and metastasis to the liver, lung, bone and brain | 
3 | N#Cc1ccc(C(c2ccc(C#N)cc2)n2cncn2)cc1 [letrozole] | significantly lowers the Ki67 percentage | 39.5 |  |  |  |  |  |  |  |  |  |  |  |  | 39.5+/−7.7%
4 | CC(=O)c1c(C)c2cnc(Nc3ccc(N4CCNCC4)cn3)nc2n(C2CCCC2)c1=O [palbociclib] |  | 51.7 |  |  |  |  |  |  |  |  |  |  |  |  | 45.3+/−19.0%
